# Test results published in PubChem BioAssay (NCI).
# “And” between values parts separate entries of the source, which are not always exact repeats. Identical values can stand only once.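 Results reflect a 48-hour exposure of cells in 96-well plates to compound at five concentrations. GI50 marks 50% less growth. TGI: total growth inhibition.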
# Experiments:
# Experiment in all cases: growth of human tumour cells (NCI), 48 h
# M14 melanoma = tested on: M14 melanoma
# A549 NSCLC = tested on: A549 NSCLC
# SNB-19 CNS = tested on: SNB-19 CNS
# NCI-H460 lung = tested on: NCI-H460 lung
# OVCAR-8 ovarian = tested on: OVCAR-8 ovarian
# RXF 393 renal = tested on: RXF 393 renal
# IGROV1 ovarian = tested on: IGROV1 ovarian
# SK-MEL-5 melanoma = tested on: SK-MEL-5 melanoma
# BT-549 breast = tested on: BT-549 breast
# PC-3 prostate = tested on: PC-3 prostate
smiles,measurement,setting,value
CS/C(=N\C(=S)N(C)C)N(c1ccccc1)c1nc(=[N+](C)C)ss1,TGI,M14 melanoma,16.7 µM
same,TGI,A549 NSCLC,22.3 µM
same,TGI,SNB-19 CNS,> 100 µM
same,TGI,NCI-H460 lung,25.7 µM
same,TGI,OVCAR-8 ovarian,28.1 µM
same,TGI,RXF 393 renal,37.4 µM
same,TGI,IGROV1 ovarian,> 100 µM
COc1ccc(C2CC(=O)c3c(O)cc(O)cc3O2)cc1O (stereo unspecified),TGI,M14 melanoma,> 100 µM
same,TGI,A549 NSCLC,> 100 µM
same,TGI,SNB-19 CNS,> 100 µM
same,TGI,NCI-H460 lung,> 100 µM
same,TGI,SK-MEL-5 melanoma,> 100 µM
same,TGI,OVCAR-8 ovarian,> 100 µM
same,TGI,IGROV1 ovarian,> 100 µM
CC(=O)N[C@@H](Cc1ccc(OP(=O)(O)O)cc1)C(=O)N[C@H]1CCC(=O)N2CCC[C@@H](C(=O)NCc3ccc(Cl)cc3)N2C1=O,GI50,M14 melanoma,> 25 µM
same,TGI,M14 melanoma,> 25 µM
same,GI50,A549 NSCLC,> 25 µM
same,TGI,A549 NSCLC,> 25 µM
same,GI50,SNB-19 CNS,> 25 µM
same,TGI,SNB-19 CNS,> 25 µM
same,GI50,NCI-H460 lung,> 25 µM
same,TGI,NCI-H460 lung,> 25 µM
same,GI50,BT-549 breast,> 25 µM
same,TGI,BT-549 breast,> 25 µM
same,GI50,PC-3 prostate,> 25 µM
same,TGI,PC-3 prostate,> 25 µM
same,GI50,SK-MEL-5 melanoma,> 25 µM
same,TGI,SK-MEL-5 melanoma,> 25 µM
same,GI50,OVCAR-8 ovarian,> 25 µM
same,TGI,OVCAR-8 ovarian,> 25 µM
same,GI50,RXF 393 renal,> 25 µM
same,TGI,RXF 393 renal,> 25 µM
same,GI50,IGROV1 ovarian,> 25 µM
same,TGI,IGROV1 ovarian,> 25 µM
CN(C)c1ccc2c(=O)c3ccccc3oc2n1,TGI,M14 melanoma,> 100 µM
same,TGI,A549 NSCLC,> 100 µM
same,TGI,SNB-19 CNS,> 100 µM
same,TGI,NCI-H460 lung,> 100 µM
same,TGI,SK-MEL-5 melanoma,> 100 µM
same,TGI,OVCAR-8 ovarian,> 100 µM
same,TGI,RXF 393 renal,> 100 µM
same,TGI,IGROV1 ovarian,> 100 µM
COc1ccccc1NC(=O)c1sc2nc3c(cc2c1N)C(=O)CCC3,GI50,M14 melanoma,2.86 µM
same,TGI,M14 melanoma,> 100 µM
same,GI50,A549 NSCLC,2.11 µM
same,TGI,A549 NSCLC,> 100 µM
same,GI50,SNB-19 CNS,12.8 µM
same,TGI,SNB-19 CNS,> 100 µM
same,GI50,NCI-H460 lung,3.06 µM
same,TGI,NCI-H460 lung,> 100 µM
same,GI50,BT-549 breast,4.43 µM
same,TGI,BT-549 breast,> 100 µM
same,GI50,SK-MEL-5 melanoma,1.62 µM
same,TGI,SK-MEL-5 melanoma,> 100 µM
same,GI50,OVCAR-8 ovarian,3.97 µM
same,TGI,OVCAR-8 ovarian,> 100 µM
same,GI50,RXF 393 renal,1.83 µM
same,TGI,RXF 393 renal,9.33 µM
same,GI50,IGROV1 ovarian,8.15 µM
same,TGI,IGROV1 ovarian,> 100 µM
CCSCC1CC(O)(c2ccccc2)C(c2ccccc2)C(c2ccc(Cl)cc2)O1 (stereo unspecified),GI50,M14 melanoma,1.81 µM
same,TGI,M14 melanoma,3.4 µM
same,GI50,A549 NSCLC,1.61 µM
same,TGI,A549 NSCLC,3.63 µM
same,GI50,NCI-H460 lung,1.42 µM
same,TGI,NCI-H460 lung,3.44 µM
same,GI50,BT-549 breast,1.76 µM
same,TGI,BT-549 breast,3.63 µM
same,GI50,PC-3 prostate,1.48 µM
same,TGI,PC-3 prostate,4.86 µM
same,GI50,SK-MEL-5 melanoma,1.64 µM
same,TGI,SK-MEL-5 melanoma,3.01 µM
same,GI50,OVCAR-8 ovarian,2.27 µM
same,TGI,OVCAR-8 ovarian,5.37 µM
same,GI50,RXF 393 renal,0.688 µM
same,TGI,RXF 393 renal,2.06 µM
same,GI50,IGROV1 ovarian,2.01 µM
same,TGI,IGROV1 ovarian,4.88 µM
COc1ccccc1/C=C(\C#N)c1ccccc1,TGI,M14 melanoma,99.4 µM
same,TGI,A549 NSCLC,> 100 µM
same,TGI,NCI-H460 lung,74.1 µM
same,TGI,SK-MEL-5 melanoma,40.9 µM
same,TGI,OVCAR-8 ovarian,> 100 µM
same,TGI,RXF 393 renal,69.3 µM
same,TGI,IGROV1 ovarian,> 100 µM
CN1C(=O)CC(c2cccc(C3CC(=O)N(C)C3=O)n2)C1=O (stereo unspecified),TGI,M14 melanoma,> 100 µM
same,TGI,A549 NSCLC,> 100 µM
same,TGI,SNB-19 CNS,> 100 µM
same,TGI,NCI-H460 lung,> 100 µM
same,TGI,SK-MEL-5 melanoma,> 100 µM
same,TGI,OVCAR-8 ovarian,> 100 µM
same,TGI,RXF 393 renal,> 100 µM
same,TGI,IGROV1 ovarian,> 100 µM
CC(C)[C@]12O[C@H]1[C@@H]1O[C@]13[C@]1(O[C@H]1C[C@H]1C4=C(CC[C@@]13C)C(=O)OC4)[C@@H]2O,GI50,M14 melanoma,0.0158 µM
same,TGI,M14 melanoma,0.0312 µM and 0.0361 µM
same,GI50,A549 NSCLC,0.0276 µM and 0.0246 µM
same,TGI,A549 NSCLC,> 100 µM
same,GI50,SNB-19 CNS,0.0627 µM
same,TGI,SNB-19 CNS,> 100 µM
same,GI50,NCI-H460 lung,< 0.01 µM
same,TGI,NCI-H460 lung,> 100 µM
same,GI50,BT-549 breast,0.0214 µM and < 0.013 µM
same,TGI,BT-549 breast,0.178 µM and 0.0347 µM
same,GI50,SK-MEL-5 melanoma,0.0131 µM
same,TGI,SK-MEL-5 melanoma,0.0213 µM and 0.0265 µM
same,GI50,OVCAR-8 ovarian,0.0285 µM
same,GI50,RXF 393 renal,0.0172 µM and < 0.0107 µM
same,TGI,RXF 393 renal,0.0353 µM and < 0.0169 µM
same,GI50,IGROV1 ovarian,0.0257 µM
same,TGI,IGROV1 ovarian,> 100 µM
FC(F)(F)Oc1cccc(-c2cnc3ccc(-c4ccncc4)nn23)c1,GI50,M14 melanoma,0.769 µM
same,TGI,M14 melanoma,> 100 µM
same,GI50,A549 NSCLC,1.12 µM
same,TGI,A549 NSCLC,9.22 µM
same,GI50,SNB-19 CNS,2.07 µM
same,TGI,SNB-19 CNS,> 100 µM
same,GI50,NCI-H460 lung,0.996 µM
same,TGI,NCI-H460 lung,> 100 µM
same,GI50,BT-549 breast,1.42 µM
same,TGI,BT-549 breast,8.88 µM
same,GI50,SK-MEL-5 melanoma,1.49 µM
same,TGI,SK-MEL-5 melanoma,3.23 µM
same,GI50,OVCAR-8 ovarian,1.47 µM
same,TGI,OVCAR-8 ovarian,> 100 µM
same,GI50,RXF 393 renal,0.398 µM
same,TGI,RXF 393 renal,2.41 µM
same,GI50,IGROV1 ovarian,0.502 µM
same,TGI,IGROV1 ovarian,5.46 µM
COc1cc2c(cc1O)CC[C@@H]1[C@@H]2CC[C@]2(C)[C@@H](NCCN(C)C)CC[C@@H]12,GI50,M14 melanoma,0.0822 µM
same,TGI,M14 melanoma,0.213 µM
same,GI50,A549 NSCLC,0.3 µM
same,TGI,A549 NSCLC,0.827 µM
same,GI50,SNB-19 CNS,0.4 µM
same,TGI,SNB-19 CNS,0.966 µM
same,GI50,NCI-H460 lung,0.324 µM
same,TGI,NCI-H460 lung,0.823 µM
same,GI50,BT-549 breast,0.334 µM
same,TGI,BT-549 breast,0.858 µM
same,GI50,PC-3 prostate,0.188 µM
same,TGI,PC-3 prostate,0.599 µM
same,GI50,SK-MEL-5 melanoma,0.0694 µM
same,TGI,SK-MEL-5 melanoma,0.166 µM
same,GI50,RXF 393 renal,0.118 µM
same,TGI,RXF 393 renal,0.48 µM
same,GI50,IGROV1 ovarian,0.407 µM
same,TGI,IGROV1 ovarian,0.954 µM
Cc1ccccc1NC(=O)C(=O)C(C#N)c1ccc(Cl)cc1 (stereo unspecified),TGI,M14 melanoma,> 100 µM
same,TGI,A549 NSCLC,> 100 µM
same,TGI,SNB-19 CNS,> 100 µM
same,TGI,NCI-H460 lung,56 µM
same,TGI,SK-MEL-5 melanoma,> 100 µM
same,TGI,OVCAR-8 ovarian,> 100 µM
same,TGI,RXF 393 renal,> 100 µM
same,TGI,IGROV1 ovarian,> 100 µM
COc1ccc(C(=O)c2cc(OC)c(OC)c(OC)c2)cc1,TGI,M14 melanoma,> 100 µM
same,TGI,A549 NSCLC,> 100 µM
same,TGI,SNB-19 CNS,> 32.7 µM
same,TGI,NCI-H460 lung,17.2 µM
same,TGI,BT-549 breast,> 100 µM
same,TGI,SK-MEL-5 melanoma,26.3 µM
same,TGI,OVCAR-8 ovarian,31.7 µM
same,TGI,RXF 393 renal,> 100 µM
same,TGI,IGROV1 ovarian,> 100 µM
CCOc1ccccc1NC(=O)CC1C(=O)Nc2ccccc2S1=O (stereo unspecified),TGI,M14 melanoma,> 100 µM
same,TGI,A549 NSCLC,> 100 µM
same,TGI,SNB-19 CNS,> 100 µM
same,TGI,NCI-H460 lung,> 100 µM
same,TGI,SK-MEL-5 melanoma,> 100 µM
same,TGI,OVCAR-8 ovarian,> 100 µM
same,TGI,RXF 393 renal,> 100 µM
same,TGI,IGROV1 ovarian,> 100 µM
CCCCCCCCCCCCNC(C)=O,TGI,M14 melanoma,32.6 µM
same,TGI,A549 NSCLC,> 100 µM
same,TGI,SNB-19 CNS,31.2 µM
same,TGI,NCI-H460 lung,32.7 µM
same,TGI,BT-549 breast,30.8 µM
same,TGI,PC-3 prostate,28.4 µM
same,TGI,SK-MEL-5 melanoma,30.4 µM
same,TGI,OVCAR-8 ovarian,44.5 µM
same,TGI,RXF 393 renal,43.4 µM
O=C(O)C/C(=C\c1ccco1)C(=O)O,TGI,M14 melanoma,> 100 µM
same,TGI,A549 NSCLC,> 100 µM
same,TGI,SNB-19 CNS,> 100 µM
same,TGI,BT-549 breast,> 100 µM
same,TGI,PC-3 prostate,> 100 µM
same,TGI,SK-MEL-5 melanoma,> 100 µM
same,TGI,OVCAR-8 ovarian,> 100 µM
same,TGI,RXF 393 renal,> 100 µM
same,TGI,IGROV1 ovarian,> 100 µM
O=C(Nc1ccccc1-c1n[nH]c(=S)[nH]c1=O)C(F)(F)F,TGI,M14 melanoma,> 100 µM
same,TGI,A549 NSCLC,> 100 µM
same,TGI,SNB-19 CNS,> 100 µM
same,TGI,NCI-H460 lung,> 100 µM
same,TGI,SK-MEL-5 melanoma,> 100 µM
same,TGI,OVCAR-8 ovarian,> 100 µM
same,TGI,RXF 393 renal,> 100 µM
same,TGI,IGROV1 ovarian,> 100 µM
Clc1ncnc(Cl)c1Cl,TGI,M14 melanoma,> 100 µM
same,TGI,A549 NSCLC,> 100 µM
same,TGI,SNB-19 CNS,> 100 µM
same,TGI,NCI-H460 lung,> 100 µM
same,TGI,PC-3 prostate,> 100 µM
same,TGI,SK-MEL-5 melanoma,> 100 µM
same,TGI,OVCAR-8 ovarian,> 100 µM
same,TGI,RXF 393 renal,> 100 µM
same,TGI,IGROV1 ovarian,> 100 µM
